According to patent US6331642A, “Vitamin D3 analogs” (Hoffmann-La Roche Inc., priority 2000, dated 2001):
Read-outs that look alike come from different tables or passages of the source.

Tests used:
[1] = tested on: telomerase; test: Telomerase activity (TRAP assay) in HL-60 cells; type: cell-based; details: 4 days
Method: Telomerase Activity. To detect the relative telomerase activity, telomeric repeat amplification protocol (TRAP) assays were performed. For human telomerase reverse transcriptase (hTERT), total RNAs were isolated from HL-cells which were treated with either 1,25(OH)2 D3 or 1,25(OH)2 -16-ene-5,6-trans-D3 (10^- 9 10^-8, and 10^-7 M) for 4 days with a monophasic solution of phenol and guanidine isothiocyanate. RT-PCR was performed with 1 μg of total RNA and random hexamer primers. cDNA was amplified using primers specific for the hTERT gene or the GAPDH gene, which was used as a control. The primers used for hTERT were: 5'-[…]-3' (sense) (SEQ ID NO: 1), and 5'-GGATGAAGCGGAGTCTGGA-3'-(antisense) (SEQ ID NO: 2). The thermal cycles were 94° C. for 90 seconds, followed by 33 cycles of 95° C. for 20 seconds, 68° C. for 40 seconds, and 72° C. for 30 seconds. Primers for the GAPDH gene were: 5'-CCATGGAGAAGGCTGGGG-3' (sense) (SEQ ID NO: 3), and 5'-[…]-3' (antisense) (SEQ ID NO: 4). Conditions for GAPDH amplifications were: 94° C. for 2 minutes, 26 cycles of 94° C. for 30 seconds, 62° C. for 40 seconds, 72° C. for 60 seconds, followed by 72° C. for 4 minutes. […]
Telomerase Activity. The effect of 1,25(OH)2 -16-ene-5,6-trans-D3and 1,25(OH)2 D3 (10^-9 -10^-7 M, 4 days) on telomerase activity was evaluated using the TRAP assay.

[2] = tested on: left femur (distal half); test: Total femoral bone calcium in ovariectomized rats; type: in vivo, adult female rats; details: ovx rats, 19 days, text: calcium in mg/distal half femur, Ovx/Veh. 10.58
Method: Three month old adult female rats were subjected to bilateral ovariectomy or sham surgery. After a week of acclimatization the animals were weight grouped and treated by oral gavage at 1 mg/kg of specified concentration. Dose volume was calculated weekly using the group average body weight. Dosing started 17 days post surgery and continued for 19 days. On the 20th day animals were euthanized by carbon dioxide inhalation and left femurs excised.
At necropsy the left femurs from all groups were excised and soft tissue removed. The bones were measured and cut in half at mid-diaphysis; then the distal portion was cut in half longitudinally after removal of the epiphysis. The bone marrow was flushed out and the calcium was extracted by immersion in 5% TCA. The calcium content of TCA extracts was determined by using quantitative, colorimetric determination of calcium. The data were expressed as mean total bone calcium in mg/distal half femur (DHF)±serum.

[3] = tested on: p27^kip1; test: Western blot analysis, p27^kip1 in MCF-7 cells; type: cell-based; details: Homo sapiens, read-out: increase in expression of p27^kip1
Method: (§1) Western Blot Analysis. Cells were washed twice with PBS, suspended in Lysis buffer (50 mM Tris Ph 8.0, 150 mM NaCl, 0.1% SDS, 0.5% sodium deoxycholate, 1% NP40, 100 μg/ml phenylmethylsulfonyl fluoride, 2 μg/ml aprotinin, 1 μg/ml pepstatin and 10 μg/ml leupeptin), and placed on ice for 30 minutes. After centrifugation at 15,000 g for 20 minutes at 4° C., the supernatant was collected. Protein concentrations were quantitated. Whole lysates (15 μg) were resolved by 15% sodium dodecyl sulphate polyacrylamide gel, were transferred to an immobilon polyvinylidene difuride membrane and were probed with anti-p27^kip1 rabbit polyclonal antibody and anti-Actin murine monoclonal antibody. Blots were developed.
(§2) Western Blot Analysis. The cyclin dependent kinase inhibitors known as p21^waf1 and p27^kip1 are able to inhibit the activity of cyclin kinase and thus slow the progression for the cells through the cell cycle. […] Exposure for one day to 1,25(OH)2 -16-ene-5,6-trans-D3 (10^-7 M) increased expression of p21^waf1 and p27^kip1 by about 3.2-3.5 fold, whereas culture with 1,25(OH)2 D3 (10^-7 M) increased expression of p21^waf1 and p27^kip1 about 1.6-1.8 fold. […] 1,25(OH)2 D3 (10^-7 M, 3 days) increased expression of p21^waf1 and p27^kip1 by 4.8 fold and 3.3 fold, respectively.

[4] = tested on: p21^waf1; test: Western blot analysis, p21^waf1 in MCF-7 cells; type: cell-based; details: Homo sapiens, read-out: increase in expression of p21^waf1
Method: as §1, §2

[5] = tested on: p27^kip1; test: Western blot analysis, p27^kip1 in HL-60 cells; type: cell-based
Method: Western Blot Analysis. Cells were washed twice with PBS, suspended in Lysis buffer (50 mM Tris Ph 8.0, 150 mM NaCl, 0.1% SDS, 0.5% sodium deoxycholate, 1% NP40, 100 μg/ml phenylmethylsulfonyl fluoride, 2 μg/ml aprotinin, 1 μg/ml pepstatin and 10 μg/ml leupeptin), and placed on ice for 30 minutes. After centrifugation at 15,000 g for 20 minutes at 4° C., the supernatant was collected. Protein concentrations were quantitated. […] Blots were developed.
The dose-dependent effect of the vitamin D3 compounds on expression of p27^kip1 HL-60 cells was examined.

[6] = tested on: seminal vesicles; test: Antiandrogenic activity in castrated testosterone stimulated hamsters, seminal vesicles; type: in vivo, male Syrian hamsters
Method: 1,25(OH)2 -16-ene-5,6-trans D3 was evaluated for antiandrogenic activity in castrated, testosterone stimulated male Syrian hamsters.
[…] Both compounds were administered in a vehicle of 0.2 ml sesame oil each. Necropsy was performed on day 15. The prostate and seminal vesicles were removed, blotted and weighed. Data were analyzed for statistical significance using the Student's t-test and are expressed as percent inhibition of stimulated response.

[7] = Serum calcium levels in ovariectomized rats; type: in vivo, adult female rats; details: ovx rats, Ovx/Veh. 10.41
Method: Three month old adult female rats were subjected to bilateral ovariectomy or sham surgery. […] Dose volume was calculated weekly using the group average body weight. Dosing started 17 days post surgery and continued for 19 days. On the 20th day animals were euthanized by carbon dioxide inhalation and left femurs excised.
Blood (1.5 ml) was collected from each animal by orbital puncture under ether anesthesia on day 7 and day 18 of dosing. Blood was collected into serum separator tubes, centrifuged at 2000 rpm for 15 min. and then serum aliquoted for calcium determinations. Serum calcium was determined by colorimetric assay.
For a verification of the effect of ovariectomy on bone calcium, the sham and ovx vehicle groups were compared using student's t-test. The ovx groups were compared by one-way analysis of variance (ANOVA), followed by Fisher's LSD to compare each treatment group to vehicle when the overall effect was statistically significant.

[8] = Serum calcium levels in vivo, mice; set-up: species or system male Balb/c mice; details: for survival: 3 weeks of study
Method: Serum Calcium Levels in vivo. Twenty-eight male Balb/c mice at 8 to 9 weeks of age were maintained in pathogen-free conditions and fed a standard laboratory diet. Four mice per group were injected intraperitoneally every other day (except Saturday and Sunday) with either vitamin D3 compound or diluant (100 μl/mouse) for 3 weeks. Doses of 1,25(OH)2-16-ene-5,6-trans-D3 were: 0.1, 0.5, 1.0, and 2.0 μg. Doses of 1,25(OH)2 D3 were 0.1 μg/mouse. Control mice were injected with 100 μl of PBS. Serum calcium values were measured every week by the quantitative, colorimetric detection assay.
Serum Calcium Levels in vivo. Because hypercalcemia is a major toxicity of vitamin D3 compounds, the calcemic effects of 1,25(OH)2 D3 were compared with 1,25(OH)2 -16-ene-5,6-trans-D3.

C=C1/C(=C\C=C2/CCC[C@]3(C)[C@@H]([C@H](C)CCCC(C)(C)O)CC[C@@H]23)C[C@@H](O)C[C@@H]1O [1,25(OH)2 D3, reference compound]
telomerase activity ([1]; 10^-7 M): markedly decreased
Femur CA/100 g BW ([2]; 0.500 μg/kg oral): 11.91 /100 g BW
fold induction at 0.1 µM ([3]; MCF7, 24 h): 1.6 to 1.8
fold induction at 0.1 µM ([3]; MCF7, 72 h): 3.3
fold induction at 0.1 µM ([4]; MCF7, 24 h): 1.6 to 1.8
fold induction at 0.1 µM ([4]; MCF7, 72 h): 4.8
expression of p27^kip1 [5]: up-regulated
levels of p27^kip1 ([5]; 10^-8-10^-7 M): increased prominently
androgen-induced hypertrophy of the seminal vesicles ([6]; non-toxic doses (1 μg)): inactive
Serum Calcium ([7]; dose printed 0500 μg/kg oral): 11.74 mg/dL
hypercalcemia ([8]; 0.1 μg/mouse i.p. every other day, 3 weeks): all hypercalcemic
serum calcium level ([8]; 0.1 μg/mouse i.p. every other day, 3 weeks, normal 8.5-10.5 mg/dl): approximately 12 mg/dl
survival [8]: All mice survived

C=C1/C(=C/C=C2\CCC[C@]3(C)C([C@H](C)CCCC(C)(C)O)=CC[C@@H]23)C[C@@H](O)C[C@@H]1O [1,25(OH)2-16-ene-5,6-trans-D3, 1,25-Dihydroxy-16-ene-5,6-trans-cholecalciferol]
telomerase activity ([1]; 10^-9 M): markedly decreased
Femur CA/100 g BW ([2]; 2.000 μg/kg oral): 11.49 /100 g BW
fold induction at 0.1 µM ([3]; MCF7, 24 h): 3.2 to 3.5
fold induction at 0.1 µM ([3]; MCF7, 72 h): 3.4
fold induction at 0.1 µM ([4]; MCF7, 24 h): 3.2 to 3.5
fold induction at 0.1 µM ([4]; MCF7, 72 h): 2.8
expression of p27^kip1 [5]: up-regulated
expression of p27^kip1 ([5]; 4 days, 10^-9 M): markedly increased
androgen-induced hypertrophy of the seminal vesicles ([6]; castrated, testosterone stimulated hamsters): substantially suppressed
Seminal vesicles Inhib. (percent inhibition of stimulated response) ([6]; testosterone + 0.1 μg compound s.c. daily, 14 days): 48%
Seminal vesicles weight ([6]; testosterone + 0.1 μg compound s.c. daily, 14 days, mg ± SEM): 71 ± 1 mg
Serum Calcium ([7]; 2.000 μg/kg oral): 9.98 mg/dL
serum calcium level ([8]; 0.1-2.0 μg/mouse i.p. every other day, 3 weeks, control mice 8-9 mg/dl): 8 to 10 mg/dL
serum calcium level compared with control mice ([8]; 0.1-2.0 μg/mouse i.p., 3 weeks): almost the same calcium level
survival [8]: All mice survived
